Test results reported in patent US8058068B2, “Peptide-enhanced transfections” (Life Technologies Corporation, priority 1995, dated 2011).
Ends that are not written are not given here. Sp‑5‑CO = N-terminal spermine conjugate

Key:
CHO-K1 cells [1] = assay: Transfection by polycationic lipid reagents other than DOSPA-DOPE +/- Sp-NLSNLS, b-galactosidase assay; format: cell-based; settings: 24 h
NIH3T3 cells = assay: as above; format: cell-based; settings: 24 h
Human fibroblasts [2] = assay: as above; format: cell-based; settings: 24 h
COS-7 cells = assay: Dendrimer-mediated and Lipofectamine transfection +/- peptides, luciferase assay; format: cell-based; settings: K16NLS (peak 2) 1, Sp-NLSNLS 1.5, NLS 20 μg/well
Human fibroblasts [3] = assay: Receptor-ligand proteins with Sp-NLSNLS in DNA pre-complexes, lipid transfection, β-galactosidase assay
Procedure: (§1) In separate experiments, CHO-K1 cells were seeded at 6×10^4 cells/well, and human fibroblasts were seeded at 8×10^4 cells/well in 24-well plates in DMEM supplemented with 10% fetal bovine serum and allowed to grow overnight.

CHO-K1 cells [4] = assay: as above; settings: DNA precomplexed with Sp-NLSNLS and the ligand protein(s)
Procedure: as §1

K562 cells = format: cell-based, human
Jurkat cells = format: cell-based, human
NIH/3T3 cells = format: cell-based; settings: peak activity
Procedure: Two versions of the Tat peptide were synthesized: one with the DNA-binding group carboxyspermine on the N-terminus and one without. The core TAT sequence employed was […] [SEQ ID NO:123]. The ability of the TAT peptide and the carboxyspermine-modified TAT peptide to enhance cationic lipid-mediated transfection was tested.
Transfection was performed in NIH/3T3 cells, in 24-well plates. Seeding density was 6×10^4 cells/well. For each condition, the standard PLUS protocol was used (see example 3) for complexing. All complexes were prepared in OptiMEM reduced serum media. Cells were harvested and assayed for β-galactosidase acivity in the soluble extracts by luminescent assay (see example 8). […] A clear enhancement is seen.

Human fibroblasts [5] = format: cell-based
[6] = polycationic lipid with DNA alone
[7] = Transfection Agent Arg DMER 3 μg/well, chloroquine
[8] = Transfection Agent G7 (EDA) 3 μg/well, chloroquine
[9] = Transfection Agent G9 (EDA) 3 μg/well, chloroquine
[10] = Transfection Agent Lipofectamine 1 μL/well
[11] = Transfection Agent Lys DMER 3 μg/well, chloroquine
[12] = Transfection Agent “COMB BURST” 3 μg/well, chloroquine
[13] = “LIPOFECTIN”, DNA precomplexed with Sp-NLSNLS and the ligand protein(s)

Substance	RLU (luciferase) (COS-7 cells; [7]) [RLU]	RLU (luciferase) (COS-7 cells; [8]) [RLU]	RLU (luciferase) (COS-7 cells; [9]) [RLU]	RLU (luciferase) (COS-7 cells; [10]) [RLU]	RLU (luciferase) (COS-7 cells; [11]) [RLU]	RLU (luciferase) (COS-7 cells; [12]) [RLU]	Enhancement-Fold (DMRIE-C transfections at peak activity) (K562 cells) [Fold]	Enhancement-Fold (DMRIE-C transfections at peak activity) (Jurkat cells) [Fold]	further results
tetramethyldioleyl spermine [TMDOS]									Peak activity, Lipid + SpNLSNLS (CHO-K1 cells [1]; DNA precomplexed to Sp-NLSNLS): 2.9 ng b-gal/cm^2; Peak activity, Lipid alone (CHO-K1 cells [1]; [6]): 1.4 ng b-gal/cm^2; Peak activity, Lipid + SpNLSNLS (NIH3T3 cells; DNA precomplexed to Sp-NLSNLS): 1.3 ng b-gal/cm^2; Peak activity, Lipid alone (NIH3T3 cells; [6]): 0.2 ng b-gal/cm^2; Peak activity, Lipid + SpNLSNLS (Human fibroblasts [2]; DNA precomplexed to Sp-NLSNLS): 0.1 ng b-gal/cm^2; Peak activity, Lipid alone (Human fibroblasts [2]; [6]): 0.01 ng b-gal/cm^2
GYGPKKKRKVGG [NLS, nuclear localization signal of SV40 large T antigen]	84209	2749	1747	224029	17689	29639			
Insulin: receptor-ligand protein									Peak activity (ng β-gal/cm^2) (Human fibroblasts [3]; DMRIE-DOPE, DNA precomplexed with Sp-NLSNLS and the ligand protein): 20.7 ng β-gal/cm^2; Peak activity (ng β-gal/cm^2) (Human fibroblasts [3]; [13]): 22.7 ng β-gal/cm^2; Peak activity (ng β-gal/cm^2) (CHO-K1 cells [4]; […]): 452 ng β-gal/cm^2; Peak activity (ng β-gal/cm^2) (CHO-K1 cells [4]; “LIPOFECTIN”): 31 ng β-gal/cm^2
Transferrin: receptor-ligand protein									Peak activity (ng β-gal/cm^2) (Human fibroblasts [3]; […], DNA precomplexed with Sp-NLSNLS and the ligand protein(s)): 24.5 ng β-gal/cm^2; Peak activity (ng β-gal/cm^2) (Human fibroblasts [3]; [13]): 30.6 ng β-gal/cm^2; Peak activity (ng β-gal/cm^2) (CHO-K1 cells [4]; […]): 433 ng β-gal/cm^2; Peak activity (ng β-gal/cm^2) (CHO-K1 cells [4]; “LIPOFECTIN”): 44 ng β-gal/cm^2
K16CGYGPKKKRKVGGGGRGDSP (KKKKKKKKKKKKKKKKGGCGYGPKKKRKVGGKFTIVF) [K16NLSRGD]							1	1	
CGYGRKKRRQRRRG [TAT]									ng b-Gal per cm2 (NIH/3T3 cells): 0.1 ng b-Gal per cm2; ng b-Gal per ug Protein (NIH/3T3 cells): 0.00 ng b-Gal per ug Protein
sp-TAT: Tat peptide CGYGRKKRRQRRRG with the DNA-binding group carboxyspermine on the N-terminus (carboxyspermine-CGYGRKKRRQRRRG)									ng b-Gal per cm2 (NIH/3T3 cells): 0.06 ng b-Gal per cm2; ng b-Gal per ug Protein (NIH/3T3 cells): 0.00 ng b-Gal per ug Protein
GLFEAIAEFIEGGWEGLIEG [E5, hemagglutinin peptide, modification of FluHa]							3	1.2	
Sp-5-CO-GGYGPKKKRKVGGGGYGPKKKRKVGG ({Sp‑5‑CO}-GGYGPKKKRKVGGGGYGPKKKRKVGG) [Sp-NLSNLS, the peptide NLSNLS conjugated to spermine]	56548	2832	1702	200447	17203	23503			Enhancement levels (β-galactosidase activity) (Human fibroblasts [5]): 5-8 fold
K16GGCGYGPKKKRKVGG [K16NLS (peak 2)]	63307	3423	2297	164105	20847	28562	1	1	
